According to US9115385B2, “Methods and compositions for topoisomerase I modulated tumor suppression” (RG BIOPHARMA, LLC, priority 2006, dated 2015):

Tests used:
topoisomerase I [1] = molecular target: T1, topoisomerase I (Homo sapiens, UniProt P11387); assay: topoisomerase I plasmid relaxation assay, agent added to nuclear extracts in vitro; assay type: biochemical; conditions: for effect on H358 topoisomerase activity: 3, 9, 27 ng added to 0.06 μg H358 extract; for effect on H23 topoisomerase activity: 3, 9, 27 ng added to 0.6 μg H23 extract
T1 construct: endogenous in cells; host or cells: H358 and H23 cells
T1 sequence (P11387 2-765 limits assumed): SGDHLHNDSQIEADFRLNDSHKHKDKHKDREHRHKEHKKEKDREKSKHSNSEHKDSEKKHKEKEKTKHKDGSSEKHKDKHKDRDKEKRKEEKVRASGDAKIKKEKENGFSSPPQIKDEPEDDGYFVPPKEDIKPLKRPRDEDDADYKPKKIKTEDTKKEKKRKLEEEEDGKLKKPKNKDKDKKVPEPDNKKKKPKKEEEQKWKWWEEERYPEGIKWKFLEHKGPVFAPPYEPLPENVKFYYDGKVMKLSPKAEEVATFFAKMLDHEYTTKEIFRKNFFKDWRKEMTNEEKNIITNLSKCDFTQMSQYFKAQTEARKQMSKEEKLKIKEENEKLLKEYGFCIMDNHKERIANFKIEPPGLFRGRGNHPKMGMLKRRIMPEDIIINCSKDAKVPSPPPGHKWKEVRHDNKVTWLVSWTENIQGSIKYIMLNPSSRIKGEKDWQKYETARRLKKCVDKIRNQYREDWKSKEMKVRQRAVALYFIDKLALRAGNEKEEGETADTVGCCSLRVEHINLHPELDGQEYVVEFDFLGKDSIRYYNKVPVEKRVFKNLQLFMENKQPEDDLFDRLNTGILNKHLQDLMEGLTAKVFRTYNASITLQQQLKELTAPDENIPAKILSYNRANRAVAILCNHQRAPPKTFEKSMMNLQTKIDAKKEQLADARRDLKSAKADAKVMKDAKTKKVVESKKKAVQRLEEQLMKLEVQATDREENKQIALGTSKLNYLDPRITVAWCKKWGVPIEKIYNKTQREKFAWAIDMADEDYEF
Protocol: Similar assays were carried out using the amount of each respective nuclear extract that produced a 50% conversion of supercoiled to relaxed form (0.06 and 0.6 μg extract protein per reaction for H358 and H23, respectively), and added increasing amounts of purified thioredoxin-ARF (3, 9, 27 ng).
Topoisomerase I Assays: Assays were carried out using the Topoisomerase I Assay Kit (Topogen, Florida), according to the instructions provided with the kit and using the high salt nuclear extracts prepared as described above. Briefly, 0.125 μg supercoiled plasmid DNA was incubated with 0-1.3 μg of nuclear extract for 30 minutes at 37° C. The reaction was stopped by adding stop loading dye supplied in the kit and electrophoresed on a 1% agarose/TAE (10 mM TRIS-acetate/1 mM EDTA) gel until the dye front had reached the bottom of the gel. The gel was then stained for 20 minutes in 0.5 μg/mL ethidium bromide, destained in deionized water for 30 minutes, and electrophoresed for an additional hour to enhance band visibility. The gel was photographed and band intensities were analyzed digitally using a Kodak digital camera and analysis software. Some assays were carried out with alkaline phosphatase-treated extracts, prepared as described below, or in the presence of ARF or ARF1β thioredoxin fusion proteins (3, 9, 27 ng), prepared as described above (see pull-down assays).

[2] = tested on: ARF/topoisomerase I complex; assay: ARF binding / co-immunoprecipitation of topoisomerase I after in vitro enzyme treatment; parameters: species or system human
From the text: (§1) The dephosphorylated topoisomerase I from H358 cells could no longer be activated by addition of increasing amounts of ARF fusion protein (FIG. 3B, lanes 7-9).

topoisomerase I [3] = molecular target: T1, topoisomerase I; assay: phosphoserine Western of topoisomerase I after in vitro enzyme treatment; assay type: biochemical
From the text: as §1

[4] = purified recombinant human topoisomerase I

## Thioredoxin-ARF: purified recombinant human ARF-thioredoxin fusion protein, full length
Topoisomerase I [1]
  effect on H358 topoisomerase activity: enhanced the activity of H358 topoisomerase in a dose-dependent manner
  effect on H23 topoisomerase activity: no effect

## alkaline phosphatase
Topoisomerase I [1]; H358 and H23 nuclear extracts treated with the enzyme
  topoisomerase I activity in vitro: abolished their topoisomerase I activity
[2]; nuclear extracts
  co-immunoprecipitation of topoisomerase I with ARF / complex formation: failed to co-immunoprecipitate
[2]; [4]
  binding of recombinant ARF fusion protein by purified recombinant human topoisomerase I: abolished its ability to bind recombinant ARF fusion protein
Topoisomerase I [3]; H358 and H23 nuclear extracts
  topoisomerase I serine phosphorylation: eliminated serine phosphorylation
Topoisomerase I [3]; [4]
  serine phosphorylation of purified recombinant human topoisomerase I: abolished serine phosphorylation

B1: thioredoxin ARF-N-terminus: thioredoxin fusion of the N-terminal 64 amino acid residues of ARF, does not bind topoisomerase I (protein, UniProt Q8N726 1-64, looked up, fragment)
chain: MVRRFLVTLRIRRACGPPRVRVFVVHIPRLTGEWAAPGAPAAVALVLMLLRSQRLGQQPLPRRP
modifications: thioredoxin fusion
Topoisomerase I [1]
  effect on H358 topoisomerase activity: Neither H358 not H23 topoisomerase activities responded
  effect on H23 topoisomerase activity: Neither H358 not H23 topoisomerase activities responded
